Drawing on patent publication US12172983B2, “EGFR inhibitors” (Blueprint Medicines Corporation, priority 2019, dated 2024), this text covers IC50 for 16 molecules.

Each structure is given as a SMILES string. Read-outs that look alike come from different tables or passages of the source.

In test [1] the target is T1, EGFR (L858R T790M C797S) (Homo sapiens, UniProt P00533, C797S/L858R/T790M).
T1 construct: purchased SignalChem E10-122VG
The experiment in a line: Biochemical EGFR inhibition assay (Caliper mobility shift), EGFR LRTMCS mutant. To be noted: inhibitory activity against EGFR LRTMCS mutant; apparent IC50; read-out: Ext Enz LRTMCS. A digest of the protocol: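 Kinase reactions proceed at 25° C. to 10%–20% conversion of total peptide, are terminated with 35 mM EDTA, and the phosphopeptide is resolved from substrate by electrophoretic mobility shift. Apparent IC50 values come from plotting percent activity against log compound concentration.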

The subject of test [2] is phosphorylation of EGFR (Tyr1068) in NCI-H1975 cell line that harbors the EGFR L858R T790M mutations. As to the kind of experiment: NCI-H1975 pEGFR AlphaLISA assay. It counts as cell-based. To be noted: 4-5 hours incubation, read-out: Ext pEGFR H1975. In outline:
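NCI-H1975 cells (EGFR L858R/T790M) seeded overnight, then treated with compound for 4-5 h at 37 °C/5% CO2. After lysis, p-EGFR (Tyr1068) quantified by AlphaLISA SureFire Ultra with acceptor then donor beads; IC50 fitted from percent inhibition versus log concentration.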
(In Alpha technology, singlet oxygen from a donor bead excites a nearby acceptor bead.)

Setting [3] is: inhibition of phosphorylation of mutant EGFR in NCI-H1975 cells.
Where [4] appears, read: Homo sapiens, NCI-H1975, inhibition of phosphorylation of mutant EGFR in NCI-H1975 cells.

T1 sequence (P00533 25-1210 T790M/C797S/L858R): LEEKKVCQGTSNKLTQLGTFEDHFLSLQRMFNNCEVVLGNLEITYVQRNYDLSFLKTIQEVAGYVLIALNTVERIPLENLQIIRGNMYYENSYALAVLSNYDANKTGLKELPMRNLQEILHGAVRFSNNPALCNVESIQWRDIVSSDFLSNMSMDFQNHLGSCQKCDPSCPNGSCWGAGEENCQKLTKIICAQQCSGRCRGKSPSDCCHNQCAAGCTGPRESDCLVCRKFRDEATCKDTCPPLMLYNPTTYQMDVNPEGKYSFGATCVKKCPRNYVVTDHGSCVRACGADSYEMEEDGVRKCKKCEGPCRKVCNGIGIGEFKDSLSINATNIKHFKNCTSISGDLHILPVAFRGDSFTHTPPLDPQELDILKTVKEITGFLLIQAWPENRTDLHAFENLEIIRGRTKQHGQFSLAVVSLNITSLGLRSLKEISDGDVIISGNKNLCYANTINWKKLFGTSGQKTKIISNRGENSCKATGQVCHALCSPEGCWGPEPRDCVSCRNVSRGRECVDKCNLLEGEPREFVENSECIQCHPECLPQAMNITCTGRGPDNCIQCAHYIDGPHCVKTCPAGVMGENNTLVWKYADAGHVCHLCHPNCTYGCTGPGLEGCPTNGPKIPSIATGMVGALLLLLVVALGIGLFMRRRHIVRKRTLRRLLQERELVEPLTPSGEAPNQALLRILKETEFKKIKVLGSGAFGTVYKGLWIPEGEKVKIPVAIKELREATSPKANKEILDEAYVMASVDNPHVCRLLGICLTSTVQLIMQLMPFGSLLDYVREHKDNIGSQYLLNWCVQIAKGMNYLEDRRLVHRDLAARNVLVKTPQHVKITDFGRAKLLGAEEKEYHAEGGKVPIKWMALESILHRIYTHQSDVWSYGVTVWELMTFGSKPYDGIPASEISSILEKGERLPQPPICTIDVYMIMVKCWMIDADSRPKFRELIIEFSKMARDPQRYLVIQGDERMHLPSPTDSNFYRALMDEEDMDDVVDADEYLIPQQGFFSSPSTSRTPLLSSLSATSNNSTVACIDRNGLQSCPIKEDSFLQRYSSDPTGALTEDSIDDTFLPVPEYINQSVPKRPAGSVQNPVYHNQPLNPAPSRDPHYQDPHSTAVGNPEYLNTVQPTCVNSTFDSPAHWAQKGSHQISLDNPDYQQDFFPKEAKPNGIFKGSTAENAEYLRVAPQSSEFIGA

On to `[2H]C([2H])([2H])O[C@H]1CCN(c2nccc(Nc3cc4c(C(C)C)ccc(N5CC(CS(C)(=O)=O)C5)c4cn3)n2)CC1(F)F` (single isomer, unassigned) [Compound 287, N-{2-[(4R)-3,3-difluoro-4-(^2H3)methoxypiperidin-1-yl]pyrimidin-4-yl}-8-[3-(methanesulfonylmethyl)azetidin-1-yl]-5-(propan-2-yl)isoquinolin-3-amine or N-{2-[(4S)-3,3-difluoro-4-(^2H3)methoxypiperidin-1-yl]pyrimidin-4-yl}-8-[3-(methanesulfonylmethyl)azetidin-1-yl]-5-(propan-2-yl)isoquinolin-3-amine], for which the IC50 was in the range of 20.1 to 30 nM in test [1] and 10.1 to 20 nM in test [2] (setting [3]).
In the case of `CCS(=O)(=O)C[C@H]1CN(c2ncc(C(C)C)c3cc(Nc4ccnc(N5CC[C@@H](OC)[C@@H](O)C5)n4)ncc23)[C@@H]1C` (single isomer, unassigned) [Compound 178], the IC50 in test [1] is no more than 15 nM; in test [2] (setting [4]), no more than 10 nM.
Take `CC(C)c1ccc(N2C[C@H](CS(C)(=O)=O)[C@H]2C)c2cnc(Nc3ccnc(N4CC[C@@H](OC[C@H](C)O)[C@@H](F)C4)n3)cc12` (single isomer, unassigned) [Compound 248, (2R)-1-{[(3S,4R)-3-fluoro-1-[4-({8-[(2R,3S)-3-(methanesulfonylmethyl)-2-methylazetidin-1-yl]-5-(propan-2-yl)isoquinolin-3-yl}amino)pyrimidin-2-yl]piperidin-4-yl]oxy}propan-2-ol or (2S)-1-{[(3S,4R)-3-fluoro-1-[4-({8-[(2R,3S)-3-(methanesulfonylmethyl)-2-methylazetidin-1-yl]-5-(propan-2-yl)isoquinolin-3-yl}amino)pyrimidin-2-yl]piperidin-4-yl]oxy}propan-2-ol]: the IC50 is no more than 15 nM in test [1] and no more than 10 nM in test [2] (setting [3]).
Consider `CCc1ccc(N2C[C@H](CS(C)(=O)=O)[C@H]2C)c2cnc(Nc3ccnc(N4CC[C@@H](O)[C@@](C)(F)C4)n3)cc12` (single isomer, unassigned) [Compound 65], for which the values for the IC50 in test [1] and in test [2] (setting [4]) were no more than 15 nM and no more than 10 nM, respectively.
For `CC(C)c1ccc(N2CC(CS(C)(=O)=O)C2)c2cnc(Nc3ccnc(N4CC[C@H](O)[C@@H](C)C4)n3)cc12` (single isomer, unassigned) [Compound 18, (3S,4S)-1-[4-({8-[3-(methanesulfonylmethyl)azetidin-1-yl]-5-(propan-2-yl)isoquinolin-3-yl}amino)pyrimidin-2-yl]-3-methylpiperidin-4-ol or (3R,4R)-1-[4-({8-[3-(methanesulfonylmethyl)azetidin-1-yl]-5-(propan-2-yl)isoquinolin-3-yl}amino)pyrimidin-2-yl]-3-methylpiperidin-4-ol], in that order: no more than 15 nM and no more than 10 nM.
For `CCS(=O)(=O)C[C@H]1CN(c2ncc(C(C)C)c3cc(Nc4ccnc(N5CC[C@](C)(O)[C@H](F)C5)n4)ncc23)[C@@H]1C` (single isomer, unassigned) [Compound 191] the same measures were no more than 15 nM and no more than 10 nM.
Regarding `CO[C@H]1CCN(c2nccc(Nc3cc4c(C(C)C)ccc(N5CC(CS(C)(=O)=O)C5)c4cn3)n2)C[C@@H]1O` (single isomer, unassigned) [Compound 53, (3S,4S)-1-[4-({8-[3-(methanesulfonylmethyl)azetidin-1-yl]-5-(propan-2-yl)isoquinolin-3-yl}amino)pyrimidin-2-yl]-4-methoxypiperidin-3-ol or (3R,4R)-1-[4-({8-[3-(methanesulfonylmethyl)azetidin-1-yl]-5-(propan-2-yl)isoquinolin-3-yl}amino)pyrimidin-2-yl]-4-methoxypiperidin-3-ol], the figures for the IC50 in test [1] and in test [2] (setting [3]) were no more than 15 nM and no more than 10 nM, respectively.
With `CC(C)c1ccc(N2CC(CS(C)(=O)=O)C2)c2cnc(Nc3ccnc(N4CC[C@@H](F)[C@H](O)C4)n3)cc12` (single isomer, unassigned) [Compound 24, (3S,4S)-4-fluoro-1-[4-({8-[3-(methanesulfonylmethyl)azetidin-1-yl]-5-(propan-2-yl)isoquinolin-3-yl}amino)pyrimidin-2-yl]piperidin-3-ol or (3R,4R)-4-fluoro-1-[4-({8-[3-(methanesulfonylmethyl)azetidin-1-yl]-5-(propan-2-yl)isoquinolin-3-yl}amino)pyrimidin-2-yl]piperidin-3-ol], the IC50 was no more than 15 nM in test [1] and 20.1 to 30 nM in test [2] (setting [4]).
For `CC(C)c1ccc(N2C[C@H](CS(C)(=O)=O)[C@H]2C)c2cnc(Nc3ccnc(N4CC[C@H](N)C(F)(F)C4)n3)cc12` (single isomer, unassigned) [Compound 151, N-{2-[(4S)-4-amino-3,3-difluoropiperidin-1-yl]pyrimidin-4-yl}-8-[(2R,3S)-3-(methanesulfonylmethyl)-2-methylazetidin-1-yl]-5-(propan-2-yl)isoquinolin-3-amine or N-{2-[(4R)-4-amino-3,3-difluoropiperidin-1-yl]pyrimidin-4-yl}-8-[(2R,3S)-3-(methanesulfonylmethyl)-2-methylazetidin-1-yl]-5-(propan-2-yl)isoquinolin-3-amine] the same measures were no more than 15 nM and no more than 10 nM.
For `CCS(=O)(=O)C[C@H]1CN(c2ccc(C(C)C)c3cc(Nc4ccnc(N5CC[C@@](C)(O)[C@@H](F)C5)n4)ncc23)[C@@H]1C` (single isomer, unassigned) [Compound 186] the same measures were no more than 15 nM and no more than 10 nM.
For `CCS(=O)(=O)C[C@H]1CN(c2cnc(C(C)C)c3cc(Nc4ccnc(N5CC[C@@](C)(O)C(F)(F)C5)n4)ncc23)[C@@H]1C` (single isomer, unassigned) [Compound 231, (4R)-1-[4-({8-[(2R,3S)-3-[(ethanesulfonyl)methyl]-2-methylazetidin-1-yl]-5-(propan-2-yl)-2,6-naphthyridin-3-yl}amino)pyrimidin-2-yl]-3,3-difluoro-4-methylpiperidin-4-ol or (4S)-1-[4-({8-[(2R,3S)-3-[(ethanesulfonyl)methyl]-2-methylazetidin-1-yl]-5-(propan-2-yl)-2,6-naphthyridin-3-yl}amino)pyrimidin-2-yl]-3,3-difluoro-4-methylpiperidin-4-ol] the same measures were no more than 15 nM and no more than 10 nM.
`CC(C)c1ccc(N2C[C@H](CS(C)(=O)=O)[C@H]2C)c2cnc(Nc3ccnc(N4CC[C@@H](OCC(C)(C)O)[C@@H](F)C4)n3)cc12` [Compound 256, 1-{[(3S,4R)-3-fluoro-1-[4-({8-[(2R,3S)-3-(methanesulfonylmethyl)-2-methylazetidin-1-yl]-5-(propan-2-yl)isoquinolin-3-yl}amino)pyrimidin-2-yl]piperidin-4-yl]oxy}-2-methylpropan-2-ol]: the IC50 is 20.1 to 30 nM in test [1] and no more than 10 nM in test [2] (setting [4]).
For `CC(C)c1ccc(N2CC(CS(C)(=O)=O)C2)c2cnc(Nc3ccnc(N4CC[C@@](F)([C@@H](C)O)C4)n3)cc12` (single isomer, unassigned) [Compound 59, (1R)-1-[(3S)-3-fluoro-1-[4-({8-[3-(methanesulfonylmethyl)azetidin-1-yl]-5-(propan-2-yl)isoquinolin-3-yl}amino)pyrimidin-2-yl]pyrrolidin-3-yl]ethan-1-ol or (1S)-1-[(3R)-3-fluoro-1-[4-({8-[3-(methanesulfonylmethyl)azetidin-1-yl]-5-(propan-2-yl)isoquinolin-3-yl}amino)pyrimidin-2-yl]pyrrolidin-3-yl]ethan-1-ol], in that order: no more than 15 nM and 10.1 to 20 nM.
For `CCS(=O)(=O)C[C@H]1CN(c2ncc(C(C)C)c3cc(Nc4ccnc(N5CC[C@H](OCCO)[C@H](F)C5)n4)ncc23)[C@@H]1C` [Compound 250, 2-{[(3R,4S)-1-[4-({8-[(2R,3S)-3-[(ethanesulfonyl)methyl]-2-methylazetidin-1-yl]-5-(propan-2-yl)-2,7-naphthyridin-3-yl}amino)pyrimidin-2-yl]-3-fluoropiperidin-4-yl]oxy}ethan-1-ol], in that order: no more than 15 nM and no more than 10 nM.
In the case of `CO[C@]1(C)CN(c2nccc(Nc3cc4c(C(C)C)ccc(N5CC(CS(C)(=O)=O)C5)c4cn3)n2)CC[C@@H]1O` (single isomer, unassigned) [Compound 95, (3S,4R)-1-[4-({8-[3-(methanesulfonylmethyl)azetidin-1-yl]-5-(propan-2-yl)isoquinolin-3-yl}amino)pyrimidin-2-yl]-3-methoxy-3-methylpiperidin-4-ol or (3R,4S)-1-[4-({8-[3-(methanesulfonylmethyl)azetidin-1-yl]-5-(propan-2-yl)isoquinolin-3-yl}amino)pyrimidin-2-yl]-3-methoxy-3-methylpiperidin-4-ol], the IC50 in test [1] was 20.1 to 30 nM; in test [2] (setting [3]), 10.1 to 20 nM.
On to `CCS(=O)(=O)CC1CN(c2ccc(C(C)C)c3cc(Nc4ccnc(N5CC[C@@](C)(O)[C@@H](F)C5)n4)ncc23)C1` [Compound 276, (3S,4R)-1-{4-[(8-{3-[(ethanesulfonyl)methyl]azetidin-1-yl}-5-(propan-2-yl)isoquinolin-3-yl)amino]pyrimidin-2-yl}-3-fluoro-4-methylpiperidin-4-ol], for which the results for the IC50 in test [1] and in test [2] (setting [4]) were no more than 15 nM and no more than 10 nM, respectively.
